Measured values published in US10251902B2, “Pharmaceutical composition for treating or preventing neuropsychiatric disease, containing flavone-6-C-glucose derivatives as active ingredients” (priority 2013, dated 2019).

Tested on: brain cells in the hippocampal region, mouse model of stroke
Experiment: Neurological scoring of hippocampal brain cell damage (Nissl staining) in mouse model of stroke
Assay type: in vivo, ICR mice
Conditions: for Neurological Score: Table 13, score 0-3 points of hippocampal damage
Method: Seven-week old ICR mice in about 30 g to 35 g (Orientbio Inc, Republic of Korea) were received water and feed without constraint and adapted for 5 days under an environment having about 23±1° C. of temperature, about 60±10% of humidity and 12-hour light/dark cycle (animal laboratory at College of Pharmacy, Kyung-Hee University), and then used for the experiment.
The laboratory animal in 1) was located in an operating room, adapted for 60 minutes, and anesthetized in a space providing anaesthetic gasses (nitrous oxide: 70%; oxygen: 30%; isoflurane: 2.0%). Pain reflex was examined to confirm the anesthesia. The laboratory animal was lain down straight on an operating table, and fixed its upper limb and head. Skin from the spot, where the upper limb and the center line meet, was incised as 1.5 cm to expose the both common carotid arteries by using tweezers while not damaging the tissues. Tissues and nerves attached to the exposed carotid arteries were separated and fixed with an aneurysm clip. The clip was removed after 15 minutes and reperfused, and the incised area was sutured with sutures. After the suture, the laboratory animal was immediately moved to a recovery room (32-33° C., O2 enrichment condition) and kept until it recovers from anesthesia. Observation on its weight and status was conducted once a day for 4 days after the operation.
Meanwhile, upon termination of the Y-maze test, a 4% paraformaldehyde fixation was conducted on the drug administration groups 1-3 and the control 2, and brain was excised. Paraformaldehyde-fixed brain sample was washed and section having 30 μm of thickness was prepared therefrom. The Nissl staining, which can stain a native region of brain cells in normal status, was performed. Brain cell damage in the hippocampal region of the drug administration groups 1-3, wherein the Swertia japonica extract prepared in Example 1 was administered, and the controls 1 and 2 was assessed through a neurological scoring. Pertaining to the evaluation standard, 0 point was scored when there was no damage on the hippocampal region; 1 point for 0-30% of damage; 2 points for 30-60% of damage; and 3 points for 60-100% of damage. The points were scored by 3 people who have no knowledge of the drug administration groups and the controls. Average point was used to calculate the degree of damage.
Upon termination of the Y-maze test, the drug administration groups 1-3 and the control 2 were sacrificed to prepare the brain section, and the Nissl staining was conducted to evaluate brain cell damage in the hippocampal region of the drug administration groups 1-3, wherein swertisin prepared in Example 3 was administered, and the controls 1 and 2 through the neurological scoring.

COc1cc2oc(-c3ccc(O)cc3)cc(=O)c2c(O)c1[C@@H]1O[C@H](CO)[C@@H](O)[C@H](O)[C@H]1O [swertisin]
Neurological Score (swertisin 50 mg/kg for 7 days): 1.8130 ± 0.3750
Neurological Score (swertisin 100 mg/kg for 7 days): 1.2500 ± 0.2500
Neurological Score (swertisin 200 mg/kg for 7 days): 1.1670 ± 0.5204
neurological score, in words (swertisin 200 mg/kg (drug administration group 3) versus stroke-induced group): significant result to the stroke-induced group
